Laboratory results from the supplement of paper PMC10878532, “Sperm Toolbox—A selection of small molecules to study human spermatozoa” (PLOS ONE, 2024).

How the values were obtained:
HeLa [1] = test: Cell Painting percent induction (share of features beyond 2 z-scores vs DMSO); higher = more features changed / larger toxic effect; extreme values may be limits of the assay; settings: incubation time: 24h incubation
human spermatozoa [2] = test: acrosome-reacted (PNA+) sperm after agonist cocktail, percent change vs DMSO (capacitating); higher = more of the measured sperm population than DMSO, for viability, fewer PI-positive (dead) cells than DMSO; settings: incubation time: 3h, capacitating + agonist cocktail 1h
human spermatozoa [3] = test: progressively motile sperm, percent change vs DMSO (non-capacitating); higher = more of the measured sperm population than DMSO, for viability, fewer PI-positive (dead) cells than DMSO; extreme values may be limits of the assay
human spermatozoa [4] = test: total motile sperm, percent change vs DMSO (non-capacitating); higher = more of the measured sperm population than DMSO, for viability, fewer PI-positive (dead) cells than DMSO
human spermatozoa [5] = test: progressively motile sperm, percent change vs DMSO (capacitating); higher = more of the measured sperm population than DMSO, for viability, fewer PI-positive (dead) cells than DMSO; settings: incubation time: 30min incubation
human spermatozoa [6] = test: viability fold change, 1 - (PI-positive fraction / DMSO median); higher = more of the measured sperm population than DMSO, for viability, fewer PI-positive (dead) cells than DMSO; settings: incubation time: 3h, non-capacitating
HeLa [7] = test: HeLa toxicity: nuclei-count effect normalised to DMSO (DMSO = 0); higher = more features changed / larger toxic effect; settings: incubation time: 24h incubation
human spermatozoa [8] = test: hyperactivated motile sperm, percent change vs DMSO (capacitating); higher = more of the measured sperm population than DMSO, for viability, fewer PI-positive (dead) cells than DMSO; settings: incubation time: 30min incubation
human spermatozoa [9] = test: change in acrosome-reacted (PNA+) sperm vs DMSO, no agonist (capacitating); higher = more of the measured sperm population than DMSO, for viability, fewer PI-positive (dead) cells than DMSO; settings: incubation time: 3h
HepG2 = HepG2 toxicity (resazurin), effect normalised to DMSO (DMSO = 0); higher = more features changed / larger toxic effect; settings: incubation time: 70h incubation
[10] = incubation time: 10min incubation, 9.99 µM
[11] = incubation time: 10min incubation, 29.9 µM
[12] = incubation time: 3h incubation, 9.99 µM
[13] = incubation time: 3h incubation, 29.9 µM
[14] = incubation time: 6h incubation, 9.99 µM
[15] = incubation time: 6h incubation, 29.9 µM
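For progressively motile sperm, percent change vs DMSO (non-capacitating) in this document: pooled live human sperm from at least 3 donors, tracked by automated microscopy in 0.5 s time-lapse movies, compounds at 10 and 30 µM, versus median of 16 DMSO wells per plate.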
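For total motile sperm, percent change vs DMSO (non-capacitating) in this document: sperm pooled from at least 3 donors, tracked in 0.5 s time-lapse movies by automated microscopy after 10 min, 3 h or 6 h with compound at 10 or 30 µM.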

Oc1c(Cl)cc(Cl)c(Cl)c1Cc1c(O)c(Cl)cc(Cl)c1Cl [Hexachlorophene]
Cell Painting percent induction (HeLa [1]; 9.99 µM): 0%
Cell Painting percent induction (HeLa [1]; 29.9 µM): 0.18%
acrosome-reacted (human spermatozoa [2]; 9.99 µM): -9.07%
acrosome-reacted (human spermatozoa [2]; 29.9 µM): -13.3%
progressively motile sperm (human spermatozoa [3]; [10]): -23.5%
progressively motile sperm (human spermatozoa [3]; [11]): -48.4%
progressively motile sperm (human spermatozoa [3]; [12]): -39.7%
progressively motile sperm (human spermatozoa [3]; [13]): -63.9%
progressively motile sperm (human spermatozoa [3]; [14]): -37.2%
progressively motile sperm (human spermatozoa [3]; [15]): -61.3%
total motile sperm (human spermatozoa [4]; [10]): -1.87%
total motile sperm (human spermatozoa [4]; [11]): -5.83%
total motile sperm (human spermatozoa [4]; [12]): -1.02%
total motile sperm (human spermatozoa [4]; [13]): -8.13%
total motile sperm (human spermatozoa [4]; [14]): -1.96%
total motile sperm (human spermatozoa [4]; [15]): -7.29%
progressively motile sperm (human spermatozoa [5]; 9.99 µM): -5.64%
progressively motile sperm (human spermatozoa [5]; 29.9 µM): -8.81%
viability fold change (human spermatozoa [6]; 9.99 µM): -0.213
viability fold change (human spermatozoa [6]; 29.9 µM): 0.344
HeLa toxicity: nuclei-count effect normalised (HeLa [7]; 9.99 µM): 14%
HeLa toxicity: nuclei-count effect normalised (HeLa [7]; 29.9 µM): 33.9%
hyperactivated motile sperm (human spermatozoa [8]; 9.99 µM): -24.4%
hyperactivated motile sperm (human spermatozoa [8]; 29.9 µM): -58.1%
change in acrosome-reacted (human spermatozoa [9]; 9.99 µM): 0.634%
change in acrosome-reacted (human spermatozoa [9]; 29.9 µM): 0.899%
HepG2 toxicity (HepG2; 10 µM): 56.3%
HepG2 toxicity (HepG2; 30 µM): 74.5%

CC(C)Cn1c(=O)n(C)c(=O)c2[nH]cnc21 [IBMX]
Cell Painting percent induction (HeLa [1]; 9.99 µM): 0%
Cell Painting percent induction (HeLa [1]; 29.9 µM): 0.036%
acrosome-reacted (human spermatozoa [2]; 9.99 µM): 36.8%
acrosome-reacted (human spermatozoa [2]; 29.9 µM): 69.3%
progressively motile sperm (human spermatozoa [3]; [10]): 18.9%
progressively motile sperm (human spermatozoa [3]; [11]): 35.7%
progressively motile sperm (human spermatozoa [3]; [12]): 40.5%
progressively motile sperm (human spermatozoa [3]; [13]): 53.9%
progressively motile sperm (human spermatozoa [3]; [14]): 53.1%
progressively motile sperm (human spermatozoa [3]; [15]): 61.2%
total motile sperm (human spermatozoa [4]; [10]): -1.18%
total motile sperm (human spermatozoa [4]; [11]): 1.45%
total motile sperm (human spermatozoa [4]; [12]): -5.33%
total motile sperm (human spermatozoa [4]; [13]): -3.42%
total motile sperm (human spermatozoa [4]; [14]): -1.15%
total motile sperm (human spermatozoa [4]; [15]): -4.45%
progressively motile sperm (human spermatozoa [5]; 9.99 µM): 12.9%
progressively motile sperm (human spermatozoa [5]; 29.9 µM): 19.2%
viability fold change (human spermatozoa [6]; 9.99 µM): -0.424
viability fold change (human spermatozoa [6]; 29.9 µM): -0.627
HeLa toxicity: nuclei-count effect normalised (HeLa [7]; 9.99 µM): 3.07%
HeLa toxicity: nuclei-count effect normalised (HeLa [7]; 29.9 µM): -2.27%
hyperactivated motile sperm (human spermatozoa [8]; 9.99 µM): 67.7%
hyperactivated motile sperm (human spermatozoa [8]; 29.9 µM): 147%
change in acrosome-reacted (human spermatozoa [9]; 9.99 µM): 0.651%
change in acrosome-reacted (human spermatozoa [9]; 29.9 µM): 1.04%
HepG2 toxicity (HepG2; 10 µM): 7.96%
HepG2 toxicity (HepG2; 30 µM): -0.365%

CC(C)Cn1cnc2c(N)nc3ccccc3c21 [Imiquimod]
Cell Painting percent induction (HeLa [1]; 9.99 µM): 0.612%
Cell Painting percent induction (HeLa [1]; 29.9 µM): 0%
acrosome-reacted (human spermatozoa [2]; 9.99 µM): 34.9%
acrosome-reacted (human spermatozoa [2]; 29.9 µM): 56.5%
progressively motile sperm (human spermatozoa [3]; [10]): 24.4%
progressively motile sperm (human spermatozoa [3]; [11]): 32.7%
progressively motile sperm (human spermatozoa [3]; [12]): 49.3%
progressively motile sperm (human spermatozoa [3]; [13]): 51.2%
progressively motile sperm (human spermatozoa [3]; [14]): 58.8%
progressively motile sperm (human spermatozoa [3]; [15]): 51.3%
total motile sperm (human spermatozoa [4]; [10]): -0.548%
total motile sperm (human spermatozoa [4]; [11]): 1.37%
total motile sperm (human spermatozoa [4]; [12]): -4.33%
total motile sperm (human spermatozoa [4]; [13]): -4.6%
total motile sperm (human spermatozoa [4]; [14]): -4.54%
total motile sperm (human spermatozoa [4]; [15]): -9.83%
progressively motile sperm (human spermatozoa [5]; 9.99 µM): 7.22%
progressively motile sperm (human spermatozoa [5]; 29.9 µM): 11.8%
viability fold change (human spermatozoa [6]; 9.99 µM): -0.324
viability fold change (human spermatozoa [6]; 29.9 µM): -0.489
HeLa toxicity: nuclei-count effect normalised (HeLa [7]; 9.99 µM): 6.28%
HeLa toxicity: nuclei-count effect normalised (HeLa [7]; 29.9 µM): 5.01%
hyperactivated motile sperm (human spermatozoa [8]; 9.99 µM): 65.2%
hyperactivated motile sperm (human spermatozoa [8]; 29.9 µM): 131%
change in acrosome-reacted (human spermatozoa [9]; 9.99 µM): 1.03%
change in acrosome-reacted (human spermatozoa [9]; 29.9 µM): 1.32%
HepG2 toxicity (HepG2; 10 µM): 10.2%
HepG2 toxicity (HepG2; 30 µM): -1.53%

Cc1sc2c(c1C)C(c1ccc(Cl)cc1)=N[C@@H](CC(=O)OC(C)(C)C)c1nnc(C)n1-2 [JQ1]
Cell Painting percent induction (HeLa [1]; 9.99 µM): 0.684%
Cell Painting percent induction (HeLa [1]; 29.9 µM): 1.87%
acrosome-reacted (human spermatozoa [2]; 9.99 µM): 17.2%
acrosome-reacted (human spermatozoa [2]; 29.9 µM): 40.2%
progressively motile sperm (human spermatozoa [3]; [10]): 13.6%
progressively motile sperm (human spermatozoa [3]; [11]): 21.5%
progressively motile sperm (human spermatozoa [3]; [12]): 27.4%
progressively motile sperm (human spermatozoa [3]; [13]): 52.8%
progressively motile sperm (human spermatozoa [3]; [14]): 48%
progressively motile sperm (human spermatozoa [3]; [15]): 55.5%
total motile sperm (human spermatozoa [4]; [10]): 4.25%
total motile sperm (human spermatozoa [4]; [11]): 1.65%
total motile sperm (human spermatozoa [4]; [12]): -3.02%
total motile sperm (human spermatozoa [4]; [13]): 0.304%
total motile sperm (human spermatozoa [4]; [14]): -0.955%
total motile sperm (human spermatozoa [4]; [15]): -3.78%
progressively motile sperm (human spermatozoa [5]; 9.99 µM): 15.8%
progressively motile sperm (human spermatozoa [5]; 29.9 µM): 27.5%
viability fold change (human spermatozoa [6]; 9.99 µM): -0.127
viability fold change (human spermatozoa [6]; 29.9 µM): -0.0779
HeLa toxicity: nuclei-count effect normalised (HeLa [7]; 9.99 µM): 16.3%
HeLa toxicity: nuclei-count effect normalised (HeLa [7]; 29.9 µM): 31.3%
hyperactivated motile sperm (human spermatozoa [8]; 9.99 µM): 18.5%
hyperactivated motile sperm (human spermatozoa [8]; 29.9 µM): -14.4%
change in acrosome-reacted (human spermatozoa [9]; 9.99 µM): 0.641%
change in acrosome-reacted (human spermatozoa [9]; 29.9 µM): 1.24%
HepG2 toxicity (HepG2; 10 µM): 56.3%

COc1cc(SC)ccc1C(=O)N1CCC(Cc2ccccc2)CC1 [JX 401]
Cell Painting percent induction (HeLa [1]; 9.99 µM): 0.036%
Cell Painting percent induction (HeLa [1]; 29.9 µM): 0%
acrosome-reacted (human spermatozoa [2]; 9.99 µM): 15%
acrosome-reacted (human spermatozoa [2]; 29.9 µM): 16.2%
progressively motile sperm (human spermatozoa [3]; [10]): 2.94%
progressively motile sperm (human spermatozoa [3]; [11]): -4.03%
progressively motile sperm (human spermatozoa [3]; [12]): 10.9%
progressively motile sperm (human spermatozoa [3]; [13]): 7.53%
progressively motile sperm (human spermatozoa [3]; [14]): 13.8%
progressively motile sperm (human spermatozoa [3]; [15]): 14.6%
total motile sperm (human spermatozoa [4]; [10]): 3.2%
total motile sperm (human spermatozoa [4]; [11]): -0.475%
total motile sperm (human spermatozoa [4]; [12]): 1.22%
total motile sperm (human spermatozoa [4]; [13]): -0.09%
total motile sperm (human spermatozoa [4]; [14]): 0.862%
total motile sperm (human spermatozoa [4]; [15]): -0.188%
progressively motile sperm (human spermatozoa [5]; 9.99 µM): 4.17%
progressively motile sperm (human spermatozoa [5]; 29.9 µM): 3.66%
viability fold change (human spermatozoa [6]; 9.99 µM): -1.82
viability fold change (human spermatozoa [6]; 29.9 µM): -1.65
HeLa toxicity: nuclei-count effect normalised (HeLa [7]; 9.99 µM): 4.01%
HeLa toxicity: nuclei-count effect normalised (HeLa [7]; 29.9 µM): 2.67%
hyperactivated motile sperm (human spermatozoa [8]; 9.99 µM): 19.2%
hyperactivated motile sperm (human spermatozoa [8]; 29.9 µM): 24.9%
change in acrosome-reacted (human spermatozoa [9]; 9.99 µM): 0.294%
change in acrosome-reacted (human spermatozoa [9]; 29.9 µM): 1.59%
HepG2 toxicity (HepG2; 10 µM): 9.25%
HepG2 toxicity (HepG2; 30 µM): -2.23%
